Assay [1] deals with KAR-mediated EPSCs at mossy fiber synapses. Put plainly: Evoked KAR-mediated EPSCs at recurrent mossy fiber synapses in acute hippocampal slices from pilocarpine-treated mice. The assay is classed as cell-based, mouse. Conditions: 1 μM; DGCs from WT pilocarpine-treated mice; data not shown. The procedure: All experiments were approved by the Institut National de la Santé et de la Recherche Médicale animal care and use committee of May 29, 2001 (2001-464) and the European community council directive of Nov. 24, 1986 (86/609/EEC). Mice (FVB/N background) had access to food and water ad libitum and were housed under a 12 h light/dark cycle at 22-24° C. Male GluK2−/− and WT mice (P60-80) were given scopolamine (1 mg/kg) subcutaneously (s.c.) 15 minutes prior to s.c. administration of pilocarpine (200-600 mg/kg). A ramp protocol was used whereby animals were given an initial dose of 200 mg/kg followed by half-doses every 30 minutes until seizures appeared. […] Diazepam (10 mg/kg) was administered 45 minutes after onset of SE. […]
Cultured or acute slices were individually transferred to a recording chamber maintained at 30-32° C. and continuously perfused (2 ml/min) with oxygenated normal or adapted ACSF containing 5 μM gabazine. […] Signals were analyzed off-line using Clampfit 9.2 (PClamp) and MiniAnalysis 6.0.1 (Synaptosoft, Decatur, Ga.). In organotypic slices, spontaneous EPSCs were recorded at the reversal potential for GABAergic currents (Vh=−70 mV). To characterize the nature and kinetic properties of fast and slow events, miniature EPSCs (mEPSCs) evoked in Sr2+ conditions (external Ca2+ was substituted with 1.2 mM Sr2+) were recorded in DGCs from GluK2−/− and WT slices. […]

The test system of assay [2] is dentate gyrus of organotypic slices. As to the kind of experiment: Spontaneous interictal-like activity, extracellular field recordings in pilocarpine-treated organotypic hippocampal slice cultures. The assay is classed as cell-based, mouse. The procedure: (§1) Hippocampal/entorhinal cortex slices (350 μm) were prepared from pre-genotyped GluK2−/− and WT mice (P9-10, FVB/N background) using a McIlwain tissue chopper. Slices were placed on mesh inserts (Millipore # PICMORG50) inside culture dishes containing 1 ml of the following medium: MEM 50%, HS 25%, HBSS 25%, HEPES 15 mM glucose 6.5 mg/ml and insulin 0.1 mg/ml. Culture medium was changed every 2-3 days and slices maintained in an incubator at 37° C./5% CO2. Pilocarpine (0.5 μM) was added to the medium at 5 D.I.V and removed at 7 D.I.V; slices were utilized for experiments from 9 D.I.V.
Cultured or acute slices were individually transferred to a recording chamber maintained at 30-32° C. and continuously perfused (2 ml/min) with oxygenated normal or adapted ACSF containing 5 μM gabazine. Local field potentials were made in the granule cell layer of the DG with glass electrodes (2-3 MΩ; filled with normal ACSF) using a DAM-80 amplifier (low filter, 1 Hz; […], 3 KHz; World Precision Instruments, Sarasota, Fla.). For evoked synaptic transmission, electrical stimulation was performed with a bipolar NiCh electrode (#762000, AM systems). Whole-cell voltage-clamp recordings of DGCs were made using tight-seal electrodes (5-8 MΩ) filled with an internal solution containing the following (in mM): 135 gluconic acid, 135 CsOH, 10 MgCl2, 0.1 CaCl2, 1 EGTA, 10 HEPES, 2 MgATP, 0.4 NaGTP, and 0.5% biocytin, pH 7.25. We used a Multiclamp 700B amplifier (Molecular Devices): data were filtered at 2 kHz, digitized (20 kHz) with a Digidata 1440A (Molecular Devices) to a PC, and acquired using Clampex 10.1 software (PClamp, Molecular Devices). Signals were analyzed off-line using Clampfit 9.2 (PClamp) and MiniAnalysis 6.0.1 (Synaptosoft, Decatur, Ga.). In organotypic slices, spontaneous EPSCs were recorded at the reversal potential for GABAergic currents (Vh=−70 mV). To characterize the nature and kinetic properties of fast and slow events, miniature EPSCs (mEPSCs) evoked in Sr2+ conditions (external Ca2+ was substituted with 1.2 mM Sr2+) were recorded in DGCs from GluK2−/− and WT slices. Electrical stimulation was made in the molecular layer in the continued presence of 5 μM gabazine and 40 μM D-APV; asynchronous mEPSCs were measured during the 300 ms period after the stimulus artifact. […] In cultured slices, visual representation of time-frequency analysis of local field potentials was performed using Autosignal software (Seasolve 1.7). In brief, field activity was highpass-filtered (>100 Hz) and time-frequency analysis performed using a continuous wavelet (Morlet) that reported integrated power (time-integral-squared amplitude, TISA) across time. Filtered traces were also analyzed by Fourier analysis (Hamming) using Clampfit 9.2. In acute hippocampal slices, intensity of antidromically-evoked bursts was quantified using coastline index (Epsztein et al., 2005).
The role of KARs in spontaneous epileptiform activity was then tested using extracellular field recordings in cultured slices. Recordings were performed in 5 mM K+-containing ACSF and in the presence of 5 μM gabazine in order to enhance neuronal excitability and to reliably record stereotyped spontaneous interictal-like activity (Berdichevsky et al., 2012).

The target of the next assay is T1, KARs (Mus musculus, UniProt P39087+Q61626).
T1 construct: from tissue; host or cells: dentate granule cells in pilocarpine-treated organotypic hippocampal/entorhinal slice cultures from WT mice (FVB/N)
T1 sequence (P39087 32-908): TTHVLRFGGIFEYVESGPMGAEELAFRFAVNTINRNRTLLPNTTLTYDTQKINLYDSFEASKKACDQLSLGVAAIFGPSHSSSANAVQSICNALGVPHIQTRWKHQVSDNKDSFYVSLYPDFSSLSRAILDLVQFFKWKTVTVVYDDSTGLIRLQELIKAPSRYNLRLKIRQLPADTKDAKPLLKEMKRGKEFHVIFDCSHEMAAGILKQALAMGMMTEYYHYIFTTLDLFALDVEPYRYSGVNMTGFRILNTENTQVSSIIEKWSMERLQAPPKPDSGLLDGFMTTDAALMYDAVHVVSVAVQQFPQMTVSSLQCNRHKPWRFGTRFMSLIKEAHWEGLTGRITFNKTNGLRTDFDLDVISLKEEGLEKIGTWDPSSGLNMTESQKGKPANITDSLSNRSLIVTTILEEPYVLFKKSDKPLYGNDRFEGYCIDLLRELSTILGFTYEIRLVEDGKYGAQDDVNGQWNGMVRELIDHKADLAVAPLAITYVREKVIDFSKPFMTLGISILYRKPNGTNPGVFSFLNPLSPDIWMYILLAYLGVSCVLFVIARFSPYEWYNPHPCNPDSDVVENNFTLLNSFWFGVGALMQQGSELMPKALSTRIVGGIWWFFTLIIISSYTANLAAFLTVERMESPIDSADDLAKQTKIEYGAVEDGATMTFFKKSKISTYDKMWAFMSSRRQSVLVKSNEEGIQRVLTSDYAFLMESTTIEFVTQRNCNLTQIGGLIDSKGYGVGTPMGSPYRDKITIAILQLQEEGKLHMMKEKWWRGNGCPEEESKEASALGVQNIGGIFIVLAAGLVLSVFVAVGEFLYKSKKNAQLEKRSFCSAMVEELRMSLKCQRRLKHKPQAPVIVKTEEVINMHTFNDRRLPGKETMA
T1 sequence (Q61626 15-979): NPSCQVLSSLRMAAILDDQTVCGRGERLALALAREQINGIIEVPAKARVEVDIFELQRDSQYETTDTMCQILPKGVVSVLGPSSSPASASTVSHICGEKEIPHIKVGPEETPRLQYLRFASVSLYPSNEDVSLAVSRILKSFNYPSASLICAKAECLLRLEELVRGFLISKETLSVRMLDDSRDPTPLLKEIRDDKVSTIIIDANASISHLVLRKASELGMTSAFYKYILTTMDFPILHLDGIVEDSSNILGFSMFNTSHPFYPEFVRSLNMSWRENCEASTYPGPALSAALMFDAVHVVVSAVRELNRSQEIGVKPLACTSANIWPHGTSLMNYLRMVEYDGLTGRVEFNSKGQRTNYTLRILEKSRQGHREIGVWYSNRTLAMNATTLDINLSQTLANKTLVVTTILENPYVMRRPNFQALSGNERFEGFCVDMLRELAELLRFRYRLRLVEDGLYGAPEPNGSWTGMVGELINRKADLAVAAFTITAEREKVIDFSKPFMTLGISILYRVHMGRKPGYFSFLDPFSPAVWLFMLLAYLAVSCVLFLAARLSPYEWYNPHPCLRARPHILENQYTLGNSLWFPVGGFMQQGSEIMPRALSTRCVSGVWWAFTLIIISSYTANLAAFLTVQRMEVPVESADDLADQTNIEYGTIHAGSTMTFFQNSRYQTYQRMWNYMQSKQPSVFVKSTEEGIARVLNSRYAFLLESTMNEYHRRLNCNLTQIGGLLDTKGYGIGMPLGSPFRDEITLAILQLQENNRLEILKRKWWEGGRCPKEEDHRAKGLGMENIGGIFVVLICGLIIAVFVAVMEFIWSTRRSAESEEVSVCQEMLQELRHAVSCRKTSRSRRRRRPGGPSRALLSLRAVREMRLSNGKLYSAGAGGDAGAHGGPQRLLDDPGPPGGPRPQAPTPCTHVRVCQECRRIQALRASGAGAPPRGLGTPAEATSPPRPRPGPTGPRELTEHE
The assay is classed as cell-based. The procedure: as §1
Cultured or acute slices were individually transferred to a recording chamber maintained at 30-32° C. and continuously perfused (2 ml/min) with oxygenated normal or adapted ACSF containing 5 μM gabazine. Local field potentials were made in the granule cell layer of the DG with glass electrodes (2-3 MΩ; filled with normal ACSF) using a DAM-80 amplifier (low filter, 1 Hz; […], 3 KHz; World Precision Instruments, Sarasota, Fla.). For evoked synaptic transmission, electrical stimulation was performed with a bipolar NiCh electrode (#762000, AM systems). […] Signals were analyzed off-line using Clampfit 9.2 (PClamp) and MiniAnalysis 6.0.1 (Synaptosoft, Decatur, Ga.). In organotypic slices, spontaneous EPSCs were recorded at the reversal potential for GABAergic currents (Vh=−70 mV). To characterize the nature and kinetic properties of fast and slow events, miniature EPSCs (mEPSCs) evoked in Sr2+ conditions (external Ca2+ was substituted with 1.2 mM Sr2+) were recorded in DGCs from GluK2−/− and WT slices. Electrical stimulation was made in the molecular layer in the continued presence of 5 μM gabazine and 40 μM D-APV; asynchronous mEPSCs were measured during the 300 ms period after the stimulus artifact. […] Filtered traces were also analyzed by Fourier analysis (Hamming) using Clampfit 9.2. In acute hippocampal slices, intensity of antidromically-evoked bursts was quantified using coastline index (Epsztein et al., 2005).

The subject of the next assay is AMPARs. As to the kind of experiment: Remaining fast (AMPAR-mediated) EPSCs in dentate granule cells of GluK2-/- organotypic slices. Particulars: 30 μM, data not shown. Format: cell-based, mouse. How it is done:
as §1
Cultured or acute slices were individually transferred to a recording chamber maintained at 30-32° C. and continuously perfused (2 ml/min) with oxygenated normal or adapted ACSF containing 5 μM gabazine. […] Signals were analyzed off-line using Clampfit 9.2 (PClamp) and MiniAnalysis 6.0.1 (Synaptosoft, Decatur, Ga.). In organotypic slices, spontaneous EPSCs were recorded at the reversal potential for GABAergic currents (Vh=−70 mV). To characterize the nature and kinetic properties of fast and slow events, miniature EPSCs (mEPSCs) evoked in Sr2+ conditions (external Ca2+ was substituted with 1.2 mM Sr2+) were recorded in DGCs from GluK2−/− and WT slices. […] Filtered traces were also analyzed by Fourier analysis (Hamming) using Clampfit 9.2. […]

Where [3] appears, read: slices from WT mice, 10 μM SYM2081 or 5 μM UBP310.

Each structure is given as a SMILES string. Read-outs that look alike come from different tables or passages of the source.

As for `N[C@H](C(=O)O)C1[C@@H](C(=O)O)[C@@H]1C(=O)O` (stereo partly drawn) [DCGIV], the “inhibition of KAR-mediated EPSCs” value in assay [1] is listed as 84%.
Consider `C[C@H](C[C@H](N)C(=O)O)C(=O)O` [SYM2081, (2S,4R)-4-Methylglutamate], for which, in assay [2] (setting [3]), the “alteration of the PD phase (power of paroxysmal discharge)” value was “No significant alteration” and the “reduction of power of the bursts in the late MB phase” value amounted to 68%. The “reduction of frequency of interictal-like activity” value in assay [2] (slices from WT mice, 10 μM SYM2081 or 5 μM UBP310, 5 mM K+ ACSF, 5 μM gabazine) came out at 47%. Also, in assay [2] (slices from WT mice, 10 μM SYM2081 or 5 μM UBP310, without antagonist 3.2±0.4, mean±SEM), the “frequency of interictal-like activity” value stood at 1.69±0.3 events/min. Also, on KARs, the “effect on KAR-mediated mEPSCs” value was “abolished”.
With `CNC(=O)N1N=C(c2ccc(N)cc2)c2cc3c(cc2CC1C)OCO3` (stereo not drawn) [GYKI53655], the “effect on KAR-mediated mEPSCs” value on KARs (WT cultured slices, SYM2081 10 μM, UBP310 5 μM, Sr2+ conditions, 5 μM gabazine, 40 μM D-APV) is recorded as “insensitive”. Besides, in the assay with AMPARs, the “block of remaining fast EPSCs” value is given as “fully blocked”.
`NS(=O)(=O)c1cc2c(cc1Cl)NC(C1CC3C=CC1C3)NS2(=O)=O` (stereo not drawn) [CTZ, cyclothiazide]: the “recovery of reduced interictal-like activity in GluK2-/- slices” value in assay [2] (GluK2-/- slices, bath application) was “could be recovered”.
